Source: US20230413824A1, “AGROCHEMICAL COMPOSITION COMPRISING 3-SUBSTITUTED PHENYLAMIDINE COMPOUNDS AND USE THEREOF” (PI INDUSTRIES LIMITED, priority 2020, published 2023)
Like-named read-outs stand apart in the source and are kept apart here.

Tests used:
Assay type in all cases: in vivo
Septoria nodorum = experiment: Parastagonospora nodorum/Septoria nodorum/Stagnospora nodorum test in wheat (preventive, glasshouse); conditions: Parastagonospora nodorum, single compound, 0.1 ppm, read-out: Observed Efficacy (%)
Procedure: The single compounds or compound combinations were dissolved in 2% DMSO/Acetone and then mixed with water containing emulsifier to a calibrated spray volume of 50 mL. The spray solutions were poured into spray bottles for further applications.
To test the preventive activity of compounds, healthy young wheat plants, raised in the greenhouse, were sprayed with the single compound or mixture preparation at the stated application rates inside the spray cabinets using hollow cone nozzles. One day after treatment, the plants were inoculated with a suspension containing 2.8×10^6 Stagnospora nodorum inoculum. The inoculated plants were then kept in a greenhouse chamber at 22-25° C. temperature and 90-100% relative humidity for disease expression.
A visual assessment of the performance of the compounds and respective compound combinations was carried out by rating the disease severity (0-100% scale) on treated plants 3, 7 and 10 days after application. Efficacy (% control) of the compounds was calculated by comparing the disease rating in the treatment with the one of the untreated control. The compounds were also assessed for their plant compatibility by recording symptoms like necrosis, chlorosis & stunting. The results are shown for the compound of formula (I-1) to (I-5) in Table E1-E5.

Alternaria solani = Alternaria solani test in tomato (preventive, glasshouse); conditions: for pest or weed control at 0.05 ppm / pest or weed control at 0.1 ppm: Alternaria solani
Phakopsora pachyrhizi = Phakopsora pachyrhizi test in soybean (preventive, glasshouse); conditions: single compound; for pest or weed control at 0.05 ppm / pest or weed control at 0.1 ppm: Phakopsora pachyrhizi, read-out: Observed Efficacy (%)
Botrytis cinerea = Botrytis cinerea test in tomato (preventive, glasshouse); conditions: single compound; for pest or weed control at 0.05 ppm / pest or weed control at 0.1 ppm: Botrytis cinerea, read-out: Observed Efficacy (%)
Erysiphe cichoracearum = Erysiphe cichoracearum test in cucumber (preventive, glasshouse); conditions: single compound; for pest or weed control at 0.05 ppm / pest or weed control at 0.1 ppm: Golovinomyces cichoracearum, read-out: Observed Efficacy (%)
Pyricularia oryzae = experiment: whole plant or invertebrate; conditions: for Observed Efficacy: single compound, preventive spray, rice
[1] = single compound, 0.05 ppm, preventive spray, read-out: Observed Efficacy (%)
[2] = single compound, 0.1 ppm, preventive spray, read-out: Observed Efficacy (%)
[3] = Table B3, single compound, Conc. 0.05 ppm, preventive
[4] = Table B3, single compound, Conc. 0.1 ppm, preventive
[5] = Table B4, single compound, Conc. 0.05 ppm, preventive
[6] = Table B4, single compound, Conc. 0.1 ppm, preventive
[7] = single compound, 0.05 ppm, preventive
[8] = single compound, 0.1 ppm, preventive
[9] = 0.05 ppm, preventive spray on soybean
[10] = Conc. 0.05 ppm, soybean, preventive, Table D4
[11] = Conc. 0.05 ppm, soybean, preventive, Table D5
[12] = Conc. 0.1 ppm, soybean, preventive, Table D4
[13] = Conc. 0.1 ppm, soybean, preventive, Table D5
[14] = Conc. 0.05 ppm, preventive spray on tomato, % control vs untreated
[15] = Conc. 0.1 ppm, preventive spray on tomato, % control vs untreated
[16] = Table F4, Conc. 0.05 ppm, Botrytis cinerea in tomato, preventive
[17] = Table F4, Conc. 0.1 ppm, Botrytis cinerea in tomato, preventive
[18] = 0.05 ppm, preventive spray on cucumber
[19] = 0.1 ppm, preventive spray on cucumber
[20] = Pyricularia oryzae, read-out: Observed Efficacy

Molecule	pest or weed control at 0.05 ppm (Alternaria solani; [1]) [%]	pest or weed control at 0.1 ppm (Alternaria solani; [2]) [%]	Observed Efficacy (%) (Alternaria solani; [3])	Observed Efficacy (%) (Alternaria solani; [4])	Observed Efficacy (%) (Alternaria solani; [5])	Observed Efficacy (%) (Alternaria solani; [6])	Observed Efficacy (%) (Alternaria solani; [7])	Observed Efficacy (%) (Alternaria solani; [8])	pest or weed control at 0.05 ppm (Phakopsora pachyrhizi; [9]) [%]	pest or weed control at 0.1 ppm (Phakopsora pachyrhizi; preventive spray on soybean) [%]	Observed Efficacy (%) (Phakopsora pachyrhizi; [10])	Observed Efficacy (%) (Phakopsora pachyrhizi; [11])	Observed Efficacy (%) (Phakopsora pachyrhizi; [12])	Observed Efficacy (%) (Phakopsora pachyrhizi; [13])	pest or weed control at 0.05 ppm (Botrytis cinerea; [14]) [%]	pest or weed control at 0.1 ppm (Botrytis cinerea; [15]) [%]	Observed Efficacy (%) (Botrytis cinerea; [16])	Observed Efficacy (%) (Botrytis cinerea; [17])	Observed Efficacy (%) (Erysiphe cichoracearum; [18])	Observed Efficacy (%) (Erysiphe cichoracearum; [19])	also measured
O=[N+]([O-])c1cc(C(F)(F)F)c(Cl)c([N+](=O)[O-])c1Nc1ncc(C(F)(F)F)cc1Cl [Fluazinam]	7	16	7	16	7	16	7	16	2	10	2	2	10	10	29	38	29	38	11	18	pest or weed control at 0.1 ppm (Septoria nodorum): 21%; pest or weed control at 0.05 ppm (Erysiphe cichoracearum; 0.05 ppm, cucumber, preventive): 11%; pest or weed control at 0.1 ppm (Erysiphe cichoracearum; 0.1 ppm, cucumber, preventive): 18%
CC1CC(C)(C)c2c(F)ccc(NC(=O)c3cn(C)nc3C(F)F)c21 (stereo not drawn) [Fluindapyr, 3-(difluoromethyl)-N-(7-fluoro-1,1,3-trimethyl-2,3-dihydro-1H-inden-4-yl)-1-methyl-1H-pyrazole-4-carboxamide]	14	29	14	29	14	29	14	29	20	30	20	–	30	30	27	41	27	41	29	38	pest or weed control at 0.05 ppm (Pyricularia oryzae; [20]): 11%; Observed Efficacy (%) (Botrytis cinerea; Table F5, Conc. 0.05 ppm, Botrytis cinerea in tomato, preventive): 27%; Observed Efficacy (%) (Botrytis cinerea; Table F5, Conc. 0.1 ppm, Botrytis cinerea in tomato, preventive): 41%; pest or weed control at 0.05 ppm (Erysiphe cichoracearum; 0.05 ppm, cucumber, preventive): 29%; pest or weed control at 0.1 ppm (Erysiphe cichoracearum; 0.1 ppm, cucumber, preventive): 38%
CC(C)(C)C(O)(CCc1ccc(Cl)cc1)Cn1cncn1 (stereo not drawn) [Tebuconazole, tebuconazole]	34	54	34	54	34	–	34	54	38	44	38	38	44	44	35	38	–	–	–	–	pest or weed control at 0.05 ppm (Alternaria solani; single compound, Conc. 0.05 ppm, preventive spray, read-out: Observed Efficacy): 34%; pest or weed control at 0.1 ppm (Alternaria solani; single compound, Conc. 0.1 ppm, preventive spray, read-out: Observed Efficacy): 54%; pest or weed control at 0.05 ppm (Pyricularia oryzae; [20]): 17%; pest or weed control at 0.1 ppm (Pyricularia oryzae; [20]): 36%; pest or weed control at 0.05 ppm (Erysiphe cichoracearum; [18]): 29%
metiram	–	–	–	–	26	30	–	–	–	–	17	–	37	–	–	–	40	57	47	55	Observed Efficacy (%) (Alternaria solani; single compound, 0.05 ppm, preventive spray): 26%; Observed Efficacy (%) (Alternaria solani; single compound, 0.1 ppm, preventive spray): 30%; Observed Efficacy (%) (Phakopsora pachyrhizi; [9]): 17%; Observed Efficacy (Pyricularia oryzae; Conc. 0.05 ppm): 16%; Observed Efficacy (Pyricularia oryzae; Conc. 0.1 ppm): 18%; Observed Efficacy (%) (Botrytis cinerea; [14]): 40%; Observed Efficacy (%) (Botrytis cinerea; [15]): 57%; Observed Efficacy (%) (Erysiphe cichoracearum; 0.05 ppm, cucumber, preventive): 47%; Observed Efficacy (%) (Erysiphe cichoracearum; 0.1 ppm, cucumber, preventive): 55%
